Laboratory results as given in patent US20130261130A1, “NEUROTRYPSIN INHIBITORS” (priority 2010, published 2013).

Biological target: T1, human neurotrypsin (Homo sapiens, UniProt P56730)
T1 sequence (P56730 21-875): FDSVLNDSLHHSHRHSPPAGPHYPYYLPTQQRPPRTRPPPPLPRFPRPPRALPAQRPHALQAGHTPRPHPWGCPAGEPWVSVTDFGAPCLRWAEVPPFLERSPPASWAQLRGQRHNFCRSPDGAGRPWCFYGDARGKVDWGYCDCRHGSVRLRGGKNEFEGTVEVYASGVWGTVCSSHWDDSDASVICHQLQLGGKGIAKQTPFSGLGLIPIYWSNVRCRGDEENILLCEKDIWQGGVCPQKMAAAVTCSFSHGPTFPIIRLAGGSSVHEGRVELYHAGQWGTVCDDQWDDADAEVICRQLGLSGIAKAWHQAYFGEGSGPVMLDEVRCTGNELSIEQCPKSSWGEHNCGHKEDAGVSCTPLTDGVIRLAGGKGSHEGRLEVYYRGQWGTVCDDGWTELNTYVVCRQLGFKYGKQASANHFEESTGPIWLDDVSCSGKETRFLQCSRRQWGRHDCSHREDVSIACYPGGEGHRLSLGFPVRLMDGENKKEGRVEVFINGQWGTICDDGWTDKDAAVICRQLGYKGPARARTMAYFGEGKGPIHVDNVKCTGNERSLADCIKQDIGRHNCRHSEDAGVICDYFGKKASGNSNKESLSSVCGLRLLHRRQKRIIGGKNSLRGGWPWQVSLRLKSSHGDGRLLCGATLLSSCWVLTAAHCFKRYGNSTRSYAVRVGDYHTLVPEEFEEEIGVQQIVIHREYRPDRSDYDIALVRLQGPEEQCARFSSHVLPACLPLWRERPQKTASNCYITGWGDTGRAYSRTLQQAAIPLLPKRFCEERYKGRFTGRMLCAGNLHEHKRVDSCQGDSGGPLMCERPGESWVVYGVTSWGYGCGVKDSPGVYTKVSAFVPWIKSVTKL
Test: Determination of IC50 for human neurotrypsin
Type: biochemical
Details: human neurotrypsin; method of WO 2006/1103261; read-out: Neurotrypsin IC50
Procedure: Assessment of the potency of compounds of examples 1-311 in inhibiting the enzymatic activity of human neurotrypsin was performed according to the method described in patent application WO 2006/1103261

Row | IC50 | Structure (SMILES)
1 | 130 µM | O=C(Nc1ccc(CCc2ccccc2)cc1)c1ccc(C(=O)O)c(NC(=O)c2sc3ccccc3c2Cl)c1 [Example 63, 2-(3-Chlorobenzo[b]-thiophene-2-carboxamido)-4-(4-phenethylphenyl-carbamoyl)benzoic acid]
2 | 23.3 µM | O=C(Nc1ccc(Oc2ccccc2)cc1)c1ccc(C(=O)O)c(NC(=O)c2sc3ccccc3c2Cl)c1 [Example 64]
3 | 7.3 µM | O=C(Nc1cccc(Oc2ccccc2)c1)c1ccc(C(=O)O)c(NC(=O)c2sc3ccccc3c2Cl)c1 [Example 65]
4 | 10.7 µM | O=C(Nc1ccc(Cc2ccccc2)cc1)c1ccc(C(=O)O)c(NC(=O)c2sc3ccccc3c2Cl)c1 [Example 67]
5 | 3.1 µM | CC(C)(C)c1ccc(NC(=O)c2ccc(C(=O)O)c(NC(=O)c3sc4ccccc4c3Cl)c2)cc1 [Example 69]
6 | 4.4 µM | O=C(Nc1ccc(Oc2ccccc2)c(Cl)c1)c1ccc(C(=O)O)c(NC(=O)c2sc3ccccc3c2Cl)c1 [Example 73]
7 | 26.1 µM | O=C(O)CN(C(=O)c1ccc(C(=O)O)c(NC(=O)c2sc3ccccc3c2Cl)c1)c1ccc(Cl)cc1 [Example 74]
8 | 5.6 µM | CC(C)(C)c1cccc(NC(=O)c2ccc(C(=O)O)c(NC(=O)c3sc4ccccc4c3Cl)c2)c1 [Example 75]
9 | 19.2 µM | CC(C)(C)Oc1ccc(NC(=O)c2ccc(C(=O)O)c(NC(=O)c3sc4ccccc4c3Cl)c2)cc1 [Example 78]
10 | 17.8 µM | O=C(Nc1ccccc1O)c1ccc(C(=O)O)c(NC(=O)c2sc3ccccc3c2Cl)c1 [Example 82]
11 | 4.8 µM | O=C(Nc1ccc(Oc2cccnc2)cc1)c1ccc(C(=O)O)c(NC(=O)c2sc3ccccc3c2Cl)c1 [Example 84]
12 | 2.3 µM | O=C(Nc1ccc(Oc2cccnc2)c(Cl)c1)c1ccc(C(=O)O)c(NC(=O)c2sc3ccccc3c2Cl)c1 [Example 85]
13 | 4.3 µM | O=C(Nc1nc2ccc(Cl)cc2s1)c1ccc(C(=O)O)c(NC(=O)c2sc3ccccc3c2Cl)c1 [Example 87, 2-(3-Chlorobenzo[b]-thiophene-2-carboxamido)-4-(6-chlorobenzo[d]thiazol-2-yl-carbamoyl)benzoic acid]
14 | 24.8 µM | CN(C(=O)c1ccc(C(=O)O)c(NC(=O)c2sc3ccccc3c2Cl)c1)c1cc2ccccc2s1 [Example 88]
15 | 4.9 µM | O=C(NCc1ccc(Cl)s1)c1ccc(C(=O)O)c(NC(=O)c2sc3ccccc3c2Cl)c1 [Example 90]
16 | 10 µM | O=C(NCc1ccc(-c2ccc(Cl)cc2)s1)c1ccc(C(=O)O)c(NC(=O)c2sc3ccccc3c2Cl)c1 [Example 91, 2-(3-Chlorobenzo[b]-thiophene-2-carboxamido)-4-((5-(4-chlorophenyl)thiophen-2-ylmethyl)carbamoyl)-benzoic acid]
17 | 10.3 µM | O=C(O)c1ccc(C(=O)N2CCCc3ccccc32)cc1NC(=O)c1sc2ccccc2c1Cl [Example 97]
18 | 6.9 µM | O=C(O)c1ccc(C(=O)N2CCC(O)(c3ccc(Cl)cc3)CC2)cc1NC(=O)c1sc2ccccc2c1Cl [Example 99]
19 | 9 µM | O=C(O)c1ccc(C(=O)N2CCC(Oc3ccccc3)C2)cc1NC(=O)c1sc2ccccc2c1Cl (stereo not shown) [Example 101]
20 | 4.1 µM | O=C(O)c1ccc(C(=O)N2CCC(c3ccccc3)C2)cc1NC(=O)c1sc2ccccc2c1Cl (stereo not shown) [Example 103]
21 | 3.9 µM | O=C(O)c1cc(C(=O)N2CCC(c3ccc(Cl)cc3)C2)ccc1NC(=O)c1sc2ccccc2c1Cl (stereo not shown) [Example 108]
22 | 3.4 µM | CC(NC(=O)c1ccc(NC(=O)c2ccc(-c3ccc(Cl)cc3)s2)c(C(=O)O)c1)c1ccc(Cl)cc1 (stereo not shown) [Example 110]
23 | 5 µM | O=C(NC1CCCc2ccccc21)c1ccc(NC(=O)c2ccc(-c3ccc(Cl)cc3)s2)c(C(=O)O)c1 (stereo not shown) [Example 112]

Row | IC50 | Structure (SMILES)
24 | 2.7 µM | O=C(O)c1cc(C(=O)N2CCC(c3ccc(F)cc3)CC2)ccc1NC(=O)c1sc2ccccc2c1Cl [Example 113]
25 | 3 µM | O=C(O)c1cc(C(=O)N2CCC(Cc3ccc(F)cc3)CC2)ccc1NC(=O)c1sc2ccccc2c1Cl [Example 114]
26 | 3.1 µM | O=C(O)c1cc(C(=O)N2CCC(c3ccc(Cl)cc3)CC2)ccc1NC(=O)c1sc2ccccc2c1Cl [Example 115]
27 | 2.4 µM | COc1ccc(C2CCN(C(=O)c3ccc(NC(=O)c4sc5ccccc5c4Cl)c(C(=O)O)c3)CC2)cc1 [Example 116]
28 | 2.9 µM | COc1ccc(CC2CCN(C(=O)c3ccc(NC(=O)c4sc5ccccc5c4Cl)c(C(=O)O)c3)CC2)cc1 [Example 117]
29 | 2.2 µM | O=C(O)c1cc(C(=O)N2CCC(Cc3ccc(Cl)cc3)CC2)ccc1NC(=O)c1sc2ccccc2c1Cl [Example 118, 2-(3-Chlorobenzo[b]-thiophene-2-carboxamido)-5-(4-(4-chlorobenzyl)piperidine-1-carbonyl)benzoic acid]
30 | 4.1 µM | O=C(Nc1ccc(Cl)cc1)c1ccc(NC(=O)c2ccc(-c3cccs3)cc2O)c(C(=O)O)c1 [Example 120, 5-(4-Chlorophenyl-carbamoyl)-2-(2-hydroxy-4-(thiophen-2-yl)benzamido)-benzoic acid]
31 | 4.9 µM | Cc1cccc(C)c1C1CCN(C(=O)c2ccc(NC(=O)c3sc4ccccc4c3Cl)c(C(=O)O)c2)CC1 [Example 121]
32 | 9.4 µM | O=C(O)c1cc(C(=O)N2CCC(c3ccc(O)cc3)CC2)ccc1NC(=O)c1sc2ccccc2c1Cl [Example 122]
33 | 3.5 µM | O=C(NCCc1ccccc1)c1ccc(NC(=O)c2ccc(-c3nc4cc(Cl)c(Cl)cc4[nH]3)cc2)c(C(=O)O)c1 [Example 123]
34 | 3.9 µM | O=C(Nc1ccc(C(=O)N2CCCCC2)cc1C(=O)O)c1ccc(-c2nc3cc(Cl)c(Cl)cc3[nH]2)cc1 [Example 124]
35 | 3.5 µM | O=C(Nc1ccc(C(=O)NC2CCCCC2)cc1C(=O)O)c1ccc(-c2nc3cc(Cl)c(Cl)cc3[nH]2)cc1 [Example 125]
36 | 1.2 µM | O=C(NCC1CCCCC1)c1ccc(NC(=O)c2ccc(-c3nc4cc(Cl)c(Cl)cc4[nH]3)cc2)c(C(=O)O)c1 [Example 126]
37 | 1 µM | CCCCc1ccc(NC(=O)c2ccc(NC(=O)c3ccc(-c4nc5cc(Cl)c(Cl)cc5[nH]4)cc3)c(C(=O)O)c2)cc1 [Example 129]
38 | 7.6 µM | CC(C)CNC(=O)c1ccc(NC(=O)c2ccc(-c3nc4cc(Cl)c(Cl)cc4[nH]3)cc2)c(C(=O)O)c1 [Example 130]
39 | 0.7 µM | CC(C)CN(CC(C)C)C(=O)c1ccc(NC(=O)c2ccc(-c3nc4cc(Cl)c(Cl)cc4[nH]3)cc2)c(C(=O)O)c1 [Example 131]
40 | 5.3 µM | O=C(NCc1ccccc1)c1ccc(NC(=O)c2ccc(-c3nc4cc(Cl)c(Cl)cc4[nH]3)cc2)c(C(=O)O)c1 [Example 132]
41 | 1.9 µM | CC(NC(=O)c1ccc(NC(=O)c2ccc(-c3nc4cc(Cl)c(Cl)cc4[nH]3)cc2)c(C(=O)O)c1)c1ccc(Cl)cc1 (stereo not shown) [Example 133]
42 | 1.9 µM | O=C(Nc1ccc(Cl)cc1)c1ccc(NC(=O)c2[nH]c3ccc(Cl)cc3c2-c2ccccc2)c(C(=O)O)c1 [Example 134]
43 | 0.9 µM | Cn1c(-c2ccc(C(=O)Nc3ccc(C(=O)Nc4ccc(Cl)cc4)cc3C(=O)O)cc2)nc2cc(Cl)c(Cl)cc21 [Example 135]
44 | 2.4 µM | CCCCCCCNC(=O)c1ccc(NC(=O)c2ccc(-c3nc4cc(Cl)c(Cl)cc4[nH]3)cc2)c(C(=O)O)c1 [Example 137]
45 | 6.6 µM | O=C(Nc1ccccc1)c1ccc(NC(=O)c2ccc(-c3nc4cc(Cl)c(Cl)cc4[nH]3)cc2)c(C(=O)O)c1 [Example 138]
46 | 7.5 µM | O=C(Nc1ccccc1F)c1ccc(NC(=O)c2[nH]c3ccc(Cl)cc3c2-c2ccccc2)c(C(=O)O)c1 [Example 139]
